From ChEMBL document CHEMBL4376892, “Identification of Parthenolide Dimers as Activators of Pyruvate Kinase M2 in Xenografts of Glioblastoma Multiforme in Vivo” (J Med Chem, 2020) come the findings set out here.

Structures are written as SMILES. Active and inactive are the calls of the source. The rule behind the calls is not given here.

Series [1] concerns Mus musculus. The experiment in a line: Reduction in Bcl2 protein expression in tumor of Bar b/c nude mouse xenografted with human U118MG cells at 50 mg/kg, ip adminstered every 3 days for 3 weeks and measured after 20 days by Western blot analysis. The series is classed as functional, organism-based.
The test system of series [2] is Mus musculus. The series can be described thus: Reduction in Bcl2 protein expression in tumor of siPKM2-treated Bar b/c nude mouse xenografted with human U118MG cells at 50 mg/kg, ip adminstered twice weekly for 3 weeks and measured after 20 days by immunohistochemical analysis. The class given is functional, organism-based. (In general: Xenograft models place foreign cells or tissue in a host animal.)

The test system of series [3] is Mus musculus. The series can be described thus: Increase in Bax protein expression in tumor of Bar b/c nude mouse xenografted with human U118MG cells at 50 mg/kg, ip adminstered every 3 days for 3 weeks and measured after 20 days by Western blot analysis. The series is classed as functional, organism-based.
Series [4] concerns Mus musculus. The experiment in a line: Increase in E-cadherin protein expression in tumor of Bar b/c nude mouse xenografted with human U118MG cells at 50 mg/kg, ip adminstered every 3 days for 3 weeks and measured after 20 days by Western blot analysis. The series is classed as functional, organism-based.
The test system of series [5] is Mus musculus. The experiment in a line: Increase in E-cadherin protein expression in tumor of Bar b/c nude mouse xenografted with human U118MG cells at 50 mg/kg, ip adminstered twice weekly for 3 weeks and measured after 20 days by immunohistochemical analysis. The class given is functional, organism-based.
Series [6] deals with Mus musculus. The series can be described thus: Increase in E-cadherin protein expression in tumor of siPKM2-treated Bar b/c nude mouse xenografted with human U118MG cells at 50 mg/kg, ip adminstered twice weekly for 3 weeks and measured after 20 days by immunohistochemical analysis. The class given is functional, organism-based.
For series [7], the system named is Mus musculus. The experiment in a line: Reduction in STAT3 protein expression in tumor of Bar b/c nude mouse xenografted with human U118MG cells at 50 mg/kg, ip adminstered every 3 days for 3 weeks and measured after 20 days by Western blot analysis. The class given is functional, organism-based.
The subject of series [8] is Mus musculus. The series can be described thus: Increase in E-cadherin gene expression in tumor of Bar b/c nude mouse xenografted with human U118MG cells at 50 mg/kg, ip adminstered every 3 days for 3 weeks. The series is classed as functional, organism-based.
Series [9] relates to Mus musculus. The experiment in a line: Increase in bax protein expression in tumor of siPKM2-treated Bar b/c nude mouse xenografted with human U118MG cells at 50 mg/kg, ip adminstered twice weekly for 3 weeks and measured after 20 days by immunohistochemical analysis. The series is classed as functional, organism-based.
Series [10] concerns U-118-MG. The series can be described thus: Antitumor activity against human U118MG cells xenografted in siPKM2-treated Bar b/c nude mouse assessed as tumor growth at 50 mg/kg, ip adminstered twice weekly for 3 weeks measured every 3 days for 20 days by caliper method. The series is classed as functional, organism-based.
The subject of series [11] is Mus musculus. The experiment in a line: Reduction in STAT3 gene expression in tumor of Bar b/c nude mouse xenografted with human U118MG cells at 50 mg/kg, ip adminstered every 3 days for 3 weeks. The series is classed as functional, organism-based.
Series [12] deals with Mus musculus. The experiment in a line: Reduction in vimentin protein expression in tumor of Bar b/c nude mouse xenografted with human U118MG cells at 50 mg/kg, ip adminstered every 3 days for 3 weeks and measured after 20 days by Western blot analysis. The class given is functional, organism-based.
Series [13] concerns Mus musculus. The series can be described thus: Reduction in Bcl2 gene expression in tumor of Bar b/c nude mouse xenografted with human U118MG cells at 50 mg/kg, ip adminstered every 3 days for 3 weeks. The class given is functional, organism-based.
Series [14] in a line: Toxicity in Bar b/c nude mouse xenografted with human U118MG cells assessed as effect on body weight at 50 mg/kg, ip adminstered twice weekly for 3 weeks and measured every 3 days for 20 days. The class given is organism-based. The settings on record: in vivo, 480 h.
Series [15] relates to U-118-MG. The experiment in a line: Antitumor activity against human U118MG cells xenografted in Bar b/c nude mouse assessed as reduction in tumor weight at 50 mg/kg, ip adminstered twice weekly for 3 weeks and measured every 3 days for 20 days by caliper method. The class given is functional, organism-based.
Series [16] has as its system Mus musculus. The series can be described thus: Reduction in phosphorylated STAT3 expression in tumor of siPKM2-treated Bar b/c nude mouse xenografted with human U118MG cells at 50 mg/kg, ip adminstered twice weekly for 3 weeks and measured after 20 days by immunohistochemical analysis. The class given is functional, organism-based.
The subject of series [17] is Mus musculus. The series can be described thus: Reduction in vimentin protein expression in tumor of Bar b/c nude mouse xenografted with human U118MG cells at 50 mg/kg, ip adminstered twice weekly for 3 weeks and measured after 20 days by immunohistochemical analysis. The series is classed as functional, organism-based.
Series [18] relates to Mus musculus. The series can be described thus: Increase in bax protein expression in tumor of Bar b/c nude mouse xenografted with human U118MG cells at 50 mg/kg, ip adminstered twice weekly for 3 weeks and measured after 20 days by immunohistochemical analysis. The class given is functional, organism-based.
Series [19] relates to U-118-MG. The experiment in a line: Antitumor activity against human U118MG cells xenografted in Bar b/c nude mouse assessed as reduction in tumor growth at 50 mg/kg, ip adminstered twice weekly for 3 weeks and measured every 3 days for 20 days by caliper method. The series is classed as functional, organism-based.
The test system of series [20] is Mus musculus. The series can be described thus: Reduction in phosphorylated STAT3 expression in tumor of Bar b/c nude mouse xenografted with human U118MG cells at 50 mg/kg, ip adminstered twice weekly for 3 weeks and measured after 20 days by immunohistochemical analysis. The series is classed as functional, organism-based.
Series [21] relates to Mus musculus. The experiment in a line: Reduction in vimentin protein expression in tumor of siPKM2-treated Bar b/c nude mouse xenografted with human U118MG cells at 50 mg/kg, ip adminstered twice weekly for 3 weeks and measured after 20 days by immunohistochemical analysis. The series is classed as functional, organism-based.
For series [22], the system named is Mus musculus. The experiment in a line: Reduction in Bcl2 protein expression in tumor of Bar b/c nude mouse xenografted with human U118MG cells at 50 mg/kg, ip adminstered twice weekly for 3 weeks and measured after 20 days by immunohistochemical analysis. The series is classed as functional, organism-based.

As to `CN(C)C[C@@H]1C(=O)O[C@H]2[C@H]1CC/C(C(=O)OCCOCCOC(=O)/C1=C/CC[C@@]3(C)O[C@H]3[C@H]3OC(=O)[C@@H](CN(C)C)[C@@H]3CC1)=C\CC[C@@]1(C)O[C@@H]21.O=C(O)/C=C/C(=O)O.O=C(O)/C=C/C(=O)O`, the inhibition result in series [1], in [7], in [11], in [12], in series [13] and in series [17] was “Active” each time. Also, the inhibition result in [20] and in [22] was “Active” each time. In addition, the inhibition result in series [2], in series [16] and in series [21] was “inactive” throughout. Moreover, the result in series [3], in series [4], in [5], in series [8], in [15] and in series [18] was Active. Also, the result in [19] was Active. For the same compound, the outcome in series [6], in [9] and in [10] was inactive. Besides, the Activity entry in series [14] is listed as “Non-Toxic”.
